Results as given in ChEMBL document CHEMBL1156825, “Design, synthesis, and docking studies of novel benzimidazoles for the treatment of metabolic syndrome” (J Med Chem, 2010).
pEC50, pKi: −log10 of the molar value. Active and inactive are the calls of the source. The rule behind the calls is not given here.

Legend:
[1] = biological target: T1, Type-1 angiotensin II receptor A (Rattus norvegicus, UniProt P25095); test: Displacement of [125I]SI-Ang2 from AT1 receptor in Sprague-Dawley rat liver membrane; assay type: cell membranes
T1 sequence (P25095 whole entry): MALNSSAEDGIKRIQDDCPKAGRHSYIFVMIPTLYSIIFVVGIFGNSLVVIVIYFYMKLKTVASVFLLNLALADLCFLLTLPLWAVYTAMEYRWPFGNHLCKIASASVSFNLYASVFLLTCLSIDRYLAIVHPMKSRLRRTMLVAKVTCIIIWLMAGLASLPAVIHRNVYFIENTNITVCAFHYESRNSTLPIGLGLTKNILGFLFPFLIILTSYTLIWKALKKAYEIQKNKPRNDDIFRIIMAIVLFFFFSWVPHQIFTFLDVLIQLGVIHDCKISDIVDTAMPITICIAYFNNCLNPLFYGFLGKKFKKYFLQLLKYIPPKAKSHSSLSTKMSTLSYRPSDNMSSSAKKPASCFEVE

[2] = biological target: T2, Peroxisome proliferator-activated receptor gamma (Homo sapiens) (UniProt P37231); test: Agonist activity at human recombinant PPARgamma expressed in CV1 cells coexpressing GAL4 assessed as receptor transactivation at 10 uM by luciferase reporter gene assay relative to full agonist; assay type: functional, cell-based; conditions: CV-1
T2 sequence (whole entry): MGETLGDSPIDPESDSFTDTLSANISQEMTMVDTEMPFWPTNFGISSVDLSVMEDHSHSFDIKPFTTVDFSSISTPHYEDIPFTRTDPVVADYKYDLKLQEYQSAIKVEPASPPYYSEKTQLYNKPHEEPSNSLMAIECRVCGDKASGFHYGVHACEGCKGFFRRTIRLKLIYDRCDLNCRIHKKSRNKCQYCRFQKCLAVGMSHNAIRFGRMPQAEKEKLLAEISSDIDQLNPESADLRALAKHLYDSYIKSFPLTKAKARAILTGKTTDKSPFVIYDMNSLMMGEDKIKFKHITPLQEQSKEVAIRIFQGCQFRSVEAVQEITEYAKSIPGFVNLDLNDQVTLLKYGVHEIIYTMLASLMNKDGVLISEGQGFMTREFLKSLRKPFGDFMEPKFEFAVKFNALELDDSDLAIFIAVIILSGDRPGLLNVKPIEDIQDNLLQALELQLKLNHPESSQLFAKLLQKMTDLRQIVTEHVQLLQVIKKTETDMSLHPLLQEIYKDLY

[3] = biological target: T3, Peroxisome proliferator-activated receptor alpha (Homo sapiens) (UniProt Q07869); test: Agonist activity at PPARalpha assessed as receptor transactivation by reporter gene assay relative to control; assay type: functional
T3 sequence (whole entry): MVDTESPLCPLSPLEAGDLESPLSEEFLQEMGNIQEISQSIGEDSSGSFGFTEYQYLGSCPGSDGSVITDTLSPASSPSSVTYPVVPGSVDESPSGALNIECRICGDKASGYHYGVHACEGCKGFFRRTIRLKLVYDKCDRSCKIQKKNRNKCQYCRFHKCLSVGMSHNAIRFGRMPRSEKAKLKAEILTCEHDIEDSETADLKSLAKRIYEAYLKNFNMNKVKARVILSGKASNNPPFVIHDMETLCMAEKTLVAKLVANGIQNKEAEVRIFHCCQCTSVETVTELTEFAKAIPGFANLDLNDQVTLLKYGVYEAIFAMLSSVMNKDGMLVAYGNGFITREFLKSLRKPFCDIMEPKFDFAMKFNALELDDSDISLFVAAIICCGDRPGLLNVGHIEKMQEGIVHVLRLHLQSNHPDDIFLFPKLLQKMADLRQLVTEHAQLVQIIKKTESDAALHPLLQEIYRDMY

[4] = biological target: T4, Peroxisome proliferator-activated receptor alpha (Homo sapiens, UniProt Q07869); test: Agonist activity at PPARalpha assessed as receptor transactivation by reporter gene assay; assay type: functional
T4 sequence (Q07869 whole entry): T3 sequence (whole entry)

[5] = biological target: Peroxisome proliferator-activated receptor alpha (Homo sapiens) (UniProt Q07869); test: Agonist activity at human recombinant PPARalpha expressed in CV1 cells coexpressing GAL4 assessed as receptor transactivation at 10 µM by luciferase reporter gene assay relative to full agonist; conditions: CV-1

Row | SMILES | pKi [1] | Activity [2] | Activity [3] | pEC50 [4] | Activity [5]
1 | CCCc1nc2c(C)cccc2n1CCOc1ccc(CC(C)(C)C(=O)OCC)cc1 | < 5.00 | 10% | – | – | –
2 | CCCc1nc2c(C)cccc2n1Cc1ccc(CCc2nnn[nH]2)cc1 | 5.55 | inactive | – | – | –
3 | CCCc1nc2c(C)cccc2n1Cc1ccc(CCC(=O)OC)cc1 | < 5.00 | 2% | – | – | –
4 | CCCc1nc2c(C)cc(-c3nc4ccccc4n3C)cc2n1Cc1ccc(-c2ccccc2C(=O)O)cc1 | – | 21.9% | – | – | –
5 | CCCc1nc2c(C)cc(-c3nc4ccccc4n3C)cc2n1Cc1ccc(CCc2nnn[nH]2)cc1 | 7.87 | inactive | – | – | –
6 | CCCc1nc2c(C)cccc2n1Cc1ccc(OCc2nnn[nH]2)cc1 | 5.30 | inactive | – | – | –
7 | CCCc1nc2c(C)cccc2n1CCOc1ccc(CC(C)(Oc2ccccc2)C(=O)OCC)cc1 (centres undefined) | < 5.00 | 69% | 93% | 6.52 | 93%
8 | CCCc1nc2c(C)cc(-c3nc4ccccc4n3C)cc2n1CCOc1ccc(CC(C)(Oc2ccccc2)C(=O)O)cc1 (centres undefined) | 5.65 | 12% | – | – | –
9 | CCCc1nc2c(C)cc(-c3nc4ccccc4n3C)cc2n1CCOc1ccc(CCc2nnn[nH]2)cc1 | 5.79 | inactive | – | – | –
10 | CCCc1nc2c(C)cccc2n1Cc1ccc(OC(C)(C)C(=O)OCC)cc1 | < 5.00 | 21% | – | – | –
11 | CCCc1nc2c(C)cc(-c3nc4ccccc4n3C)cc2n1CCOc1ccc(CC(C)(Oc2ccccc2)C(=O)OCC)cc1 (centres undefined) | 5.60 | 29% | 15% | – | 15%
12 | CCCc1nc2c(C)cccc2n1Cc1ccc(/C=C/C(=O)OCC)cc1 | < 5.00 | 4% | – | – | –
13 | CCCc1nc2c(C)cccc2n1Cc1ccc(OCC(=O)OCC)cc1 | < 5.00 | – | – | – | –
